Experimental data: publication PMC12814364 (Journal of the American Chemical Society, 2025)
Read-outs that look alike come from different tables or passages of the source.

How the values were obtained:
HBHA110–199 [1] = biological target: T1, HBHA110–199 (Mycobacterium tuberculosis, UniProt P9WIP9); test: Circular dichroism of HBHA110–199 with added sugar; settings: data not shown
HBHA110–199 [2] = biological target: T1, HBHA110–199; assay type: binding
full-length HBHA = biological target: T2, full-length HBHA (Mycobacterium tuberculosis, UniProt P9WIP9); test: Far-UV circular dichroism of full-length HBHA with added sugar
T2 sequence (P9WIP9 1-199): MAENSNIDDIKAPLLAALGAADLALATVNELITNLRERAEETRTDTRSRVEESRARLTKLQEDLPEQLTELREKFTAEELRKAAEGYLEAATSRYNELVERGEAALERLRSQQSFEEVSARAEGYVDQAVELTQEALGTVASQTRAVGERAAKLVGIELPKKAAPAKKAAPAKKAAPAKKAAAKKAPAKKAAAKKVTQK

HBHA110–199 [3] = biological target: T1, HBHA110–199; test: ITC binding of HS hexadecasaccharides with HBHA110–199

With `O=C(O)[C@@H]1O[C@@H](O[C@H]2[C@H](O)[C@@H](NS(=O)(=O)O)[C@@H](O[C@H]3[C@H](O)[C@@H](OS(=O)(=O)O)[C@H]4OC[C@@H]3O4)O[C@@H]2COS(=O)(=O)O)[C@H](OS(=O)(=O)O)[C@@H](O)[C@@H]1O[C@H]1O[C@H](COS(=O)(=O)O)[C@@H](O[C@@H]2O[C@@H](C(=O)O)[C@@H](O[C@H]3O[C@H](COS(=O)(=O)O)[C@@H](O[C@@H]4O[C@@H](C(=O)O)[C@@H](O[C@H]5O[C@H](COS(=O)(=O)O)[C@@H](O[C@@H]6O[C@@H](C(=O)O)[C@@H](O[C@H]7O[C@H](COS(=O)(=O)O)[C@@H](O[C@@H]8O[C@@H](C(=O)O)[C@@H](O[C@H]9O[C@H](COS(=O)(=O)O)[C@@H](O[C@@H]%10O[C@@H](C(=O)O)[C@@H](O[C@H]%11O[C@H](COS(=O)(=O)O)[C@@H](O[C@@H]%12O[C@@H](C(=O)O)[C@@H](O[C@H]%13O[C@H](COS(=O)(=O)O)[C@@H](O)[C@H](O)[C@H]%13NS(=O)(=O)O)[C@H](O)[C@H]%12OS(=O)(=O)O)[C@H](O)[C@H]%11NS(=O)(=O)O)[C@H](O)[C@H]%10OS(=O)(=O)O)[C@H](O)[C@H]9NS(=O)(=O)O)[C@H](O)[C@H]8OS(=O)(=O)O)[C@H](O)[C@H]7NS(=O)(=O)O)[C@H](O)[C@H]6OS(=O)(=O)O)[C@H](O)[C@H]5NS(=O)(=O)O)[C@H](O)[C@H]4OS(=O)(=O)O)[C@H](O)[C@H]3NS(=O)(=O)O)[C@H](O)[C@H]2OS(=O)(=O)O)[C@H](O)[C@H]1NS(=O)(=O)O` [compound 24] the “changes in CD spectra of HBHA110–199” value (HBHA110–199 [1]) was “no noteworthy changes”, the Kd (HBHA110–199 [2]; Average of Repeat I P(KKAA), residue 160-164, read-out: Dissociation constant from NMR cross-peak movement, average) was 8.7 µM and the Kd (HBHA110–199 [2]; Average of Repeat II P(AKKAA), residue 165-170, read-out: Dissociation constant from NMR cross-peak movement, average) was 3.2 µM. It also gave a Kd (HBHA110–199 [2]; Average of Repeat III P(AKKAA), residue 171-176, read-out: Dissociation constant from NMR cross-peak movement, average) of 2.9 µM, a Kd (HBHA110–199 [2]; Average of Repeat IV P([…]), residue 177-186, read-out: Dissociation constant from NMR cross-peak movement, average) of 1.4 µM and a Kd (HBHA110–199 [2]; Average of Repeat V P([…]), residue 187-196, read-out: Dissociation constant from NMR cross-peak movement, average) of 1.6 µM. The Kd (HBHA110–199 [2]; from NMR cross-peak movement, read-out: average KD in the most perturbed region (residues 178–199)) was 1.5 µM, the “average Δδresidue (weighted chemical shift deviation) of HBHA110–199” value (HBHA110–199 [2]; protein-to-sugar molar ratio 1:2, all residues) was 0.035 ppm and the Kd (HBHA110–199 [2]; residue A163, Repeat I, read-out: Dissociation constant from NMR cross-peak movement) was 9.5 µM. For the same compound, the Kd (HBHA110–199 [2]; residue A164, Repeat I, read-out: Dissociation constant from NMR cross-peak movement) was 5.4 µM, the Kd (HBHA110–199 [2]; residue A166, Repeat II, read-out: Dissociation constant from NMR cross-peak movement) was 3.2 µM and the Kd (HBHA110–199 [2]; residue A169, Repeat II, read-out: Dissociation constant from NMR cross-peak movement) was 5.5 µM. The Kd (HBHA110–199 [2]; residue A170, Repeat II, read-out: Dissociation constant from NMR cross-peak movement) was 2.5 µM, the Kd (HBHA110–199 [2]; residue A172, Repeat III, read-out: Dissociation constant from NMR cross-peak movement) was 2.2 µM and the Kd (HBHA110–199 [2]; residue A175, Repeat III, read-out: Dissociation constant from NMR cross-peak movement) was 2.3 µM. It also gave a Kd (HBHA110–199 [2]; residue A176, Repeat III, read-out: Dissociation constant from NMR cross-peak movement) of 1.4 µM, a Kd (HBHA110–199 [2]; residue A178, Repeat IV, read-out: Dissociation constant from NMR cross-peak movement) of 0.8 µM and a Kd (HBHA110–199 [2]; residue A181, Repeat IV, read-out: Dissociation constant from NMR cross-peak movement) of 1.4 µM. The Kd (HBHA110–199 [2]; residue A182, Repeat IV, read-out: Dissociation constant from NMR cross-peak movement) was 1 µM, the Kd (HBHA110–199 [2]; residue A183, Repeat IV, read-out: Dissociation constant from NMR cross-peak movement) was 0.7 µM and the Kd (HBHA110–199 [2]; residue A186, Repeat IV, read-out: Dissociation constant from NMR cross-peak movement) was 0.8 µM. It also gave a Kd (HBHA110–199 [2]; residue A188, Repeat V, read-out: Dissociation constant from NMR cross-peak movement) of 0.8 µM, a Kd (HBHA110–199 [2]; residue A191, Repeat V, read-out: Dissociation constant from NMR cross-peak movement) of 1.5 µM and a Kd (HBHA110–199 [2]; residue A192, Repeat V, read-out: Dissociation constant from NMR cross-peak movement) of 2.1 µM. It also gave a Kd (HBHA110–199 [2]; residue A193, Repeat V, read-out: Dissociation constant from NMR cross-peak movement) of 1 µM, a Kd (HBHA110–199 [2]; residue K161, Repeat I, read-out: Dissociation constant from NMR cross-peak movement) of 12.9 µM and a Kd (HBHA110–199 [2]; residue K162, Repeat I, read-out: Dissociation constant from NMR cross-peak movement) of 6.8 µM. The Kd (HBHA110–199 [2]; residue K167, Repeat II, read-out: Dissociation constant from NMR cross-peak movement) was 1.7 µM, the Kd (HBHA110–199 [2]; residue K168, Repeat II, read-out: Dissociation constant from NMR cross-peak movement) was 3.2 µM and the Kd (HBHA110–199 [2]; residue K173, Repeat III, read-out: Dissociation constant from NMR cross-peak movement) was 1.7 µM. The Kd (HBHA110–199 [2]; residue K174, Repeat III, read-out: Dissociation constant from NMR cross-peak movement) was 6.7 µM, the Kd (HBHA110–199 [2]; residue K179, Repeat IV, read-out: Dissociation constant from NMR cross-peak movement) was 1.3 µM and the Kd (HBHA110–199 [2]; residue K190, Repeat V, read-out: Dissociation constant from NMR cross-peak movement) was 1.2 µM. The Kd (HBHA110–199 [2]; residue K194, Repeat V, read-out: Dissociation constant from NMR cross-peak movement) was 1.1 µM, the Kd (HBHA110–199 [2]; residue K195, Repeat V, read-out: Dissociation constant from NMR cross-peak movement) was 2.9 µM and the Kd (HBHA110–199 [2]; residue V196, Repeat V, read-out: Dissociation constant from NMR cross-peak movement) was 2.3 µM. The “random coil of full-length HBHA” value (full-length HBHA; HBHA:compound 1:0.5) was 52.4%, the “β-sheet of full-length HBHA” value (full-length HBHA; HBHA:compound 1:0.5) was 24.0% and the “α-helix of full-length HBHA” value (full-length HBHA; HBHA:compound 1:0.5, far-UV CD 195–260 nm) was 23.6%. The “random coil of full-length HBHA” value (full-length HBHA; HBHA:compound 1:1) was 51.9%, the “α-helix of full-length HBHA” value (full-length HBHA; HBHA:compound 1:1) was 24.9% and the “β-sheet of full-length HBHA” value (full-length HBHA; HBHA:compound 1:1) was 23.2%. For the same compound, the “random coil of full-length HBHA” value (full-length HBHA; HBHA:compound 1:1.5) was 52.2%, the “α-helix of full-length HBHA” value (full-length HBHA; HBHA:compound 1:1.5) was 24.4% and the “β-sheet of full-length HBHA” value (full-length HBHA; HBHA:compound 1:1.5) was 23.4%. For the same compound, the “increase in α-helical content of bound HBHA” value (full-length HBHA; estimated by Dichroweb, roughly 16 residues) was “approximately 8%”, the “n (sugar-to-protein binding ratio)” value (HBHA110–199 [3]; 25 °C, Tris buffer pH 7.6) was 0.27 ± 0.01 and the ΔG (HBHA110–199 [3]; 25 °C, Tris buffer pH 7.6) was “–7.82 ± 0.02 kcal/mol”. For the same compound, the ΔH (HBHA110–199 [3]; 25 °C, Tris buffer pH 7.6) was 16.00 ± 0.00 kcal/mol, the “–TΔS” value (HBHA110–199 [3]; 25 °C, Tris buffer pH 7.6) was “–23.85 ± 0.08 kcal/mol” and the Kd (HBHA110–199 [3]; Tris buffer pH 7.6, 25 °C, two trials, average ± standard deviation, read-out: dissociation constant, KD) was 1.87 ± 0.06 µM.
